Reference: patent US20230150951A1, “2,5- OR 2,6-DISUBSTITUTED HYDROQUINONE DERIVATIVES WITH AT LEAST ONE CARBOXY, SULFO OR AMIDO GROUP USEFUL AS MEDICAMENTS” (OM PHARMA SA, priority 2020, published 2023)
Where two headings read alike, the source gives them in different places.

Legend:
Format in all cases: cell-based
IL-17A = test: Cytokine release after LPS induction on human whole blood: IL-17A
Experimental: (§1) Aim of this in vitro method is to assess compounds effects on release of a panel of cytokines from whole blood following lipopolysaccharide (LPS) induced inflammatory reaction. Whole blood was incubated with compounds for 1 h prior to LPS induction. Cytokine levels in blood were measured using a multiplex FACS-based panel.
(§2) IC50 values determined for the tested compounds expressed in microM [μM] and the values for the inhibition of cytokines were listed for each compound.
(§3) Effect on cytokines release after LPS induction was performed on the compounds dissolved in DMSO or H2O to reach 10-fold concentrated stock solutions and dissolved in culture media.
(§4) Test system: Whole blood was removed from a single donor (into lithium heparin coated tubes; BD Vacutainer; 367886) and diluted 1:5 with RPMI 1640 (Thermo Fisher, 61870036). Within 30 minutes of sampling, blood was incubated with compounds for 1 h prior to LPS stimulation (O111:B4—Sigma L4391; 10 ng/ml final concentration). Stimulation continued under standard cell culture conditions (37° C. with 5% CO2) overnight (18 h), after which plates were centrifuged and supernatant removed and frozen at −80° C. until used for analyses.
(§5) Dilution of test compounds: 10×concentrated solutions (concerning to the final assay concentrations) of each test compound were prepared with the appropriate solvent (in DMSO or in water). These 10× compound solutions (10 μl) were then added to 90 μl pre-diluted whole blood (whole blood: RPMI1640, 1:5) resulting in the final assay concentration.
(§6) Test method: Diluted whole blood (80 μl) was pre-incubated with compounds (10 μl) to give final assay concentrations of 100, 30, 10, 3, 1, 0.3 and 0.1×10^−6M. Blood was incubated at 37° C. with 5% CO2 for 1 h. LPS was diluted in cell culture media to a concentration of […]; 10 μl was added to the whole blood to give a final concentration of 10 ng/ml. Plates were incubated at 37° C. for 18 h. Plates were centrifuged at 3,000 RPM for 5 minutes at 4° C. and supernatant removed and frozen at −80° C. until FACS analysis was carried out.
(§7) Cytokine release was measured using a custom multiplex system (ELISA Genie) according to manufacturers instructions. Prepared samples were run on an Attune NxT flow cytometer (Thermo Fisher).
(§8) Quantification of cytokine release inhibition: known concentration standards were run as part of the cytokine panel to allow quantification of each cytokine concentration in each sample. This was carried out using FCAP Array v3.0 software.
(§9) Results: The dose response relationship on cytokine release following LPS induction of inflammatory response in whole blood was assessed for all compounds. IC50 values were determined for each compound for a panel of cytokines (GM-CSF, IFN-gamma, IL-1beta, IL-2, IL-4, IL-5, IL-6, IL-8, IL-9, IL-10, IL-12p40, IL-13, IL-17A, IL-17F, IL-18, IL-21, IL-22, IL-33, TGF-beta, TNF-alpha, TNF-beta).

IL-33 = test: Cytokine release after LPS induction on human whole blood: IL-33
Experimental: as §1, §2, §3, §4, §5, §6, §7, §8, §9

IL-1beta = test: Cytokine release after LPS induction on human whole blood: IL-1β
Experimental: as §1, §2, §3, §4, §5, §6, §7, §8, §9

Human neutrophils = test: Inhibition of ROS production in human neutrophils (isoluminol chemiluminescence); details: Homo sapiens, Neutrophil, fMLP+TNF-α stimulated PMN
Procedure, shortened: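 Neutrophils from healthy-donor buffy coats (3×10^6/ml in HBSS with Ca/Mg) pre-incubated 30 min at 37° C with compound (0.1–10 μM), primed with TNF-α 20 ng/ml for 10 min, then added to fibrinogen-coated wells. Isoluminol/HRP chemiluminescence recorded every 25 sec for 250 sec after fMLP (1 μM), background-subtracted.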

TNF-alpha = test: Cytokine release after LPS induction on human whole blood: TNFα
Experimental: as §1, §2, §3, §4, §5, §6, §7, §8, §9

[1] = Homo sapiens, LPS 10 ng/ml, 18 h, read-out: Whole Blood: IL-17A IC50
[2] = human whole blood, inhibition of LPS induced inflammation, read-out: IC50 IL-17A
[3] = Homo sapiens, LPS 10 ng/ml, 18 h, read-out: Whole Blood: IL-33 IC50
[4] = human whole blood, inhibition of LPS induced inflammation, read-out: IC50 IL-33
[5] = Homo sapiens, LPS 10 ng/ml, 18 h, read-out: Whole Blood: IL-1β IC50
[6] = human whole blood, inhibition of LPS induced inflammation, read-out: IC50 IL-1b
[7] = Homo sapiens, LPS 10 ng/ml, 18 h, read-out: Whole Blood: TNF α IC50
[8] = human whole blood, inhibition of LPS induced inflammation, read-out: IC50 TNFa

SMILES	IC50 (IL-17A; [1]) [nM]	IC50 (IL-17A; [2]) [nM]	IC50 (IL-33; [3]) [nM]	IC50 (IL-33; [4]) [nM]	IC50 (IL-1beta; [5]) [nM]	IC50 (IL-1beta; [6]) [nM]	inhibition at 0.3 µM (Human neutrophils) [%]	IC50 (Human neutrophils) [nM]	IC50 (TNF-alpha; [7]) [nM]	IC50 (TNF-alpha; [8]) [nM]
O=C(O)c1cc(O)c(C(=O)Nc2ccc(-c3nnn[nH]3)cc2)cc1O [Ia-003a-Tz, 4-(4-(1H-tetrazol-5-yl)phenyl-aminocarbonyl)-2,5-dihydroxybenzoic acid]	70	70	72200	72200	> 100000	100000	62.2	2490	180	180
O=C(O)c1cc(O)cc(CSCc2cc(O)cc(C(=O)O)c2O)c1O [IVc-058a, 3-((2,5-Dihydroxy-3-carboxyphenyl)methylthiomethyl)-2,5-dihydroxybenzoic acid]	100	100	33900	33900	27500	27500	77	290	180	180
O=C(O)Cc1cc(O)c(C(=O)Nc2ccccc2-c2nnn[nH]2)cc1O [IIIa-001aTz]	170	170	140	140	> 100000	100000	69.3	–	310	310
O=C(Nc1ccccc1-c1nnn[nH]1)c1cc(O)c(C(=O)Nc2ccccc2-c2nnn[nH]2)cc1O [Ic-001aTz2, N1,N4-bis(2-(1H-tetrazol-5-yl)phenyl)-2,5-dihydroxyterephthalamide]	310	–	230	–	> 100000	–	60.6	–	100	–
O=C(O)Cc1cc(O)c(C(=O)Nc2c(C(=O)O)cccc2C(=O)O)cc1O [IIIa-013a, 2-(4-(carboxymethyl)-2,5-dihydroxybenzamido)isophthalic acid]	150	150	1110	1110	> 100000	100000	76.5	–	510	510
COC(=O)c1cc(OC(C)=O)cc(CS(=O)(=O)Cc2cc(OC(C)=O)cc(C(=O)OC)c2OC(C)=O)c1OC(C)=O [IVc-059a-E2-A4]	20	20	23200	23200	14100	14100	29.2	4130	300	300
O=C(O)c1cc(O)ccc1NC(=O)c1cc(O)cc(C(=O)Nc2ccc(O)cc2C(=O)O)c1O [IIc-009a, 2-(3-(2-carboxy-4-hydroxyphenylaminocarbonyl)-2,5-dihydroxybenzamido)-5-hydroxyl benzoic acid]	1	1	290	290	> 100000	100000	75.3	–	110	110
O=C(O)c1ccccc1CNC(=O)c1cc(O)cc(C(=O)O)c1O [IIa-053a, 3-(2-Carboxyphenylmethylaminocarbonyl)-2,5-dihydroxybenzoic acid]	> 100000	100000	12100	12100	> 100000	100000	63.1	620	20	20
O=C(O)c1cc(NC(=O)c2cc(O)cc(C(=O)Nc3ccc(O)c(C(=O)O)c3)c2O)ccc1O [IIc-007a, 5-(3-(3-carboxy-4-hydroxyphenylaminocarbonyl)-2,5-dihydroxybenzamido)-2-hydroxy benzoic acid]	10	10	180	180	> 100000	100000	93	–	30	30
CC(=O)N(Cc1cc(O)c(C(=O)O)cc1O)Cc1cc(O)c(C(=O)O)cc1O [IIIc-057a, N,N-Bis(4-carboxy-2,5-dihydroxyphenylmethyl)acetamide]	1320	1320	2930	2930	16200	16200	90.3	–	150	150
O=C(O)c1cc(O)c(C(=O)Nc2ccccc2S(=O)(=O)O)cc1O [Ia-001c, 2,5-dihydroxy-4-(2-sulfophenylaminocarbonyl)benzoic acid]	90	90	> 100000	100000	> 100000	100000	40.4	2400	50	50
O=C(O)c1cc(NC(=O)c2cc(O)c(C(=O)O)cc2O)cc(C(=O)O)c1 [Ia-015a, 5-(4-carboxy-2,5-dihydroxybenzamido)isophthalic acid]	50	50	240	240	> 100000	100000	43.8	387	170	170
CCOC(=O)c1cc(NC(=O)c2cc(O)c(C(=O)OCC)cc2O)cc(NC(=O)c2cc(O)c(C(=O)OCC)cc2O)c1 [Ib-010a-E3, ethyl 3,5-bis(2,5-dihydroxy-4-ethoxycarbonylbenzoylamino)benzoate]	520	520	20000	20000	> 100000	100000	36.4	6520	980	980
